Test results: patent publication US20080233251A1, “Method and Apparatus for Sterilizing Containers” (priority 2005, published 2008)
Values joined by “and” are separate entries in the source; they are usually repeats but may differ in a detail not shown here. Equal values may be shown once. Read-outs that look alike come from different tables or passages of the source.

Key:
Type in all cases: cell-based
[1] = tested on: B. subtilis var. globigii (ATCC 9372); settings: 35° C., 30 seconds; for CFU/Swab: surviving count per replicate (1-5)
Method: (§1) The experiments were designed to identify the conditions optimal for polymer sterilization and also explore the boundary areas to determine the conditions limiting the efficacy of the treatment. Each polymer strip was inoculated by drop spotting approximately 100 micro-liters and coating the surface by swabbing the surface of the polyethylene strip. The culture was allowed to dry before sterilization. Each strip of polyethylene was treated by vigorously agitating the strip in the appropriate treatment solutions. Each treated polymer strip was then treated with catalase to inactivate residual peroxide, swabbed and plated using TGE incubated at 35° C. for two days.
In Table Three, a solution of 0.1 Normal potassium hydroxide (KOH) was utilized with a solution of 3% hydrogen peroxide at a temperature of 35° C. for 30 seconds.

[2] = tested on: B. subtilis var. globigii (ATCC 9372); settings: surviving count per replicate strip (replicates 1-5), 50° C., inoculum 10^6
Description: as §1, with “The following examples illustrate the efficacy of the method of the present invention. The experiments” for “The experiments”
In Table One, a NaOH control, an inoculated untreated control, and two methods of the present invention were measured and the results set forth in Table 1. Five replicate polymer strips were used for each of the two methods of the present invention. A log measurement value is provided below each of the non-log values. The first method uses hydrogen peroxide first and then an alkaline solution of sodium hydroxide. The second method uses an alkaline solution of sodium hydroxide first and then hydrogen peroxide. The sterilization was conducted at 50° C.

[3] = tested on: B. subtilis var. globigii (ATCC 9372); settings: for bactericidal effect (in words): text on Table Two; for Average: average of the logCFU/Swab replicates; for logCFU/Swab: log of surviving count per replicate (1-5); for logCFU/Swab / CFU/Swab: unagitated; for CFU/Swab: surviving count per replicate (1-5), contact times in label
Method: as §1
A log measurement value is provided below each of the non-log values. The sterilization was conducted at 50° C.

| Compound | CFU/Swab [1] | bactericidal effect (in words) ([3]; 50° C.) | Average [3] | logCFU/Swab ([3]; 50° C.) | CFU/Swab ([3]; 50° C.) | other results |
| --- | --- | --- | --- | --- | --- | --- |
| catalase [Catalase Control] | 2,500,000 CFU/Swab |  |  |  |  | logCFU/Swab ([1]; log of surviving count per replicate (1-5)): 6.40 logCFU/Swab |
| [Na+].[OH-] [1M NaOH Control, sodium hydroxide] |  |  |  |  |  | CFU/Swab [2]: 5,700 CFU/Swab and 210 CFU/Swab |
| OO [50° C. 30 s 3.5% H2O2 10 s catalase, hydrogen peroxide] |  | no effect | 6.52 | 6.20 logCFU/Swab and 6.60 logCFU/Swab and 6.70 logCFU/Swab | 1,600,000 CFU/Swab and 4,200,000 CFU/Swab and 4,000,000 CFU/Swab and 3,000,000 CFU/Swab and 5,000,000 CFU/Swab | Log reduction ([3]; versus inoculated untreated control (average 6.66)): 0.14 |
| OO [50° C. 30 s 35% H2O2 10 s catalase, hydrogen peroxide] |  |  | 2.30 | 1.60 logCFU/Swab and 1.30 logCFU/Swab | 40 CFU/Swab and 570 CFU/Swab and 20 CFU/Swab and 270 CFU/Swab and 2700 CFU/Swab | log inactivation per 10 seconds of treatment ([3]; rate of kill per unit time, 50° C.): 1.45 log per 10 seconds |
| [Na+].[OH-] [50° C. 10 s 0.25M NaOH Control, sodium hydroxide] |  | no bacteriocidal effect | 6.75 | 6.80 logCFU/Swab and 6.90 logCFU/Swab | 6,300,000 CFU/Swab and 3,800,000 CFU/Swab and 7,900,000 CFU/Swab and 5,400,000 CFU/Swab |  |
| OO [H2O2 Control, hydrogen peroxide] | 5,200,000 CFU/Swab |  |  |  |  |  |
